Source: patent US20100119599A1 (ARCHER PHARMACEUTICALS, INC., priority 2006, published 2010)

Columns and labels:
Aβ1-42 = experiment: Measurement of Aβ1-42 in culture medium of 7W WT APP751 CHO cells by ELISA; type: cell-based, Chinese hamster; settings: CHO cells that overexpress APP751; zero = below the detection limit of the assay
Procedure: (§1) Chinese hamster ovary (CHO) cells, stably transfected with human APP751 (7W WT APP751 CHO cells) were used. See, e.g., Koo and Squazzo, J. Biol. Chem., 269(26): 17386-17389, 1994. The cells were maintained in DMEM medium supplemented with 10% fetal bovine serum and 1× mixture of penicillin/streptomycin/fungizone/glutamine mixture (Cambrex, Md.) geneticin as selecting agent in 75 cm^2 cell culture flasks. The 7W WT APP751 CHO cells were plated in 96-well cell culture plates in quadruplicate, containing 200 microliters of culture medium, for 18 hours at 37° C. and 5% CO2. All test compounds were placed in dimethyl sulfoxide (DMSO) before being added to the cultured confluent 7W WT APP751 CHO cells to a concentration of the test compound of 5 μM. The culture medium was collected and diluted before being assayed by ELISAs for Aβ1-40 at 10-fold dilution and Aβ1-42 at 2-fold dilution, respectively. Concentrations of Aβ1-40 and Aβ1-42, expressed in pg/ml, were determined using commercially available ELISAs (Biosource, Calif.) in a colorimetric assay using labeled antibodies detected spectrophotometrically. For compounds with an identification beginning “RI”, the compounds were tested at a concentration of 10 μM for 24 hours. Control cells were treated with DMSO containing no compound. The percentage reduction in levels of Aβ1-40 and Aβ1-42 as compared to control cells not exposed to the test compounds are reported for the compounds in Tables 1, 2, and 3, supra. An entry of “0” indicates no detectable amount of Aβ1-40 or Aβ1-42 according to the assay conditions. The data in Tables 1, 2, and 3 may be rounded to the nearest 0.1%.

Aβ1-40 = experiment: Measurement of Aβ1-40 in culture medium of 7W WT APP751 CHO cells by ELISA; type: cell-based, Chinese hamster; settings: CHO cells that overexpress APP751; zero = below the detection limit of the assay
Procedure: as §1
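Further: 5 µM test compound but RI-coded compounds at 10 µM for 24 hours.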

SMILES | Aβ1-42 (% of control) (Aβ1-42) | Aβ1-40 (% of control) (Aβ1-40)
N#CC1=C(N)NC(SCC(N)=O)=C(C#N)C1c1ccccc1Br (stereo not shown) [RI_1] | 75.4 % of control | 93.2 % of control
N#CC1=C(N)NC(SCC(N)=O)=C(C#N)C1c1ccccc1F (stereo not shown) [RI_2] | 44.4 % of control | 100.9 % of control
N#CC1=C(N)NC(SCC(N)=O)=C(C#N)C1c1ccc(Cl)cc1 (stereo not shown) [RI_3] | 51.2 % of control | 97.4 % of control
N#CC1=C(N)NC(SCC(N)=O)=C(C#N)C1c1cccs1 (stereo not shown) [RI_4] | 64.7 % of control | 92.2 % of control
CSC1=C(C#N)C(c2ccccc2)C(C(=O)Nc2ccc(Cl)cc2)=C(C)N1 (stereo not shown) [RI_5] | 82.2 % of control | 81.4 % of control
CC1=C(C(=O)Nc2ccccc2)C(c2ccsc2)C(C#N)=C(SCC(=O)Nc2ccccc2)N1 (stereo not shown) [RI_6] | 65.1 % of control | 77.7 % of control
CC1=C(C(=O)Nc2ccccc2)C(c2cccs2)C(C#N)=C(SCC(=O)Nc2ccc(Oc3ccccc3)cc2)N1 (stereo not shown) [RI_8] | 26.4 % of control | 46.1 % of control
CCOc1ccc(NC(=O)CSC2=C(C#N)C(c3cccs3)C(C(=O)Nc3ccccc3)=C(C)N2)cc1 (stereo not shown) [RI_9] | 27.6 % of control | 56.3 % of control
CC1=C(C(=O)Nc2ccc(Cl)cc2)C(c2cccs2)C(C#N)=C(SCC(=O)Nc2cccc(C)c2)N1 (stereo not shown) [RI_10] | 70.6 % of control | 78.8 % of control
CC1=C(C(=O)Nc2ccccc2)C(c2cccs2)C(C#N)=C(SCC(=O)Nc2cc(C)cc(C)c2)N1 (stereo not shown) [RI_11] | 35.8 % of control | 52.1 % of control
CC1=C(C(=O)Nc2ccccc2)C(c2cccs2)C(C#N)=C(SCC(=O)Nc2ccccc2F)N1 (stereo not shown) [RI_12] | 82.5 % of control | 68.4 % of control
CC1=C(C(=O)Nc2ccccc2)C(c2cccs2)C(C#N)=C(SCC(=O)Nc2cccc(F)c2)N1 (stereo not shown) [RI_13] | 41.3 % of control | 53.8 % of control
CC1=C(C(=O)Nc2ccc(Cl)cc2)C(c2ccsc2)C(C#N)=C(SCC(=O)Nc2cccc(C)c2)N1 (stereo not shown) [RI_14] | 64.1 % of control | 56.3 % of control
COc1ccc(CCNC(=O)CSC2=C(C#N)C(c3cccs3)C(C(=O)Nc3ccccc3)=C(C)N2)cc1OC (stereo not shown) [RI_15] | 41.2 % of control | 74.9 % of control
CC1=C(C(=O)Nc2ccccc2)C(c2ccccc2)C(C#N)=C(SCC(=O)Nc2ccccc2C)N1 (stereo not shown) [RI_16] | 105 % of control | 64.2 % of control
CC1=C(C(=O)Nc2ccccc2)C(c2cccs2)C(C#N)=C(SCC(=O)NCCC(C)(C)C)N1 (stereo not shown) [RI_17] | 24.1 % of control | 18.2 % of control
COc1cc(CNC(=O)CSC2=C(C#N)C(c3cccs3)C(C(=O)Nc3ccccc3)=C(C)N2)cc(OC)c1OC (stereo not shown) [RI_18] | 44.1 % of control | 49.2 % of control
CC1=C(C(=O)Nc2ccccc2)C(c2cccs2)C(C#N)=C(SCC(=O)NCCc2ccc(Br)cc2)N1 (stereo not shown) [RI_19] | 44.4 % of control | 35.4 % of control
CC1=C(C(=O)Nc2ccccc2)C(c2cccs2)C(C#N)=C(SCC(=O)NCc2ccc(Br)cc2)N1 (stereo not shown) [RI_20] | 41.9 % of control | 45.6 % of control
CC1=C(C(=O)Nc2ccccc2)C(c2cccs2)C(C#N)=C(SCC(=O)NC2CCC(C)CC2)N1 (stereo not shown) [RI_21] | 22.1 % of control | 18.7 % of control
CC1=C(C(=O)Nc2ccccc2)C(c2cccs2)C(C#N)=C(SCC(=O)NCc2ccccc2)N1 (stereo not shown) [RI_22] | 47.6 % of control | 60.9 % of control

SMILES | Aβ1-42 (% of control) (Aβ1-42) | Aβ1-40 (% of control) (Aβ1-40)
CCCCNC(=O)CSC1=C(C#N)C(c2cccs2)C(C(=O)Nc2ccccc2)=C(C)N1 (stereo not shown) [RI_23] | 35.9 % of control | 49.3 % of control
CC1=C(C(=O)Nc2ccccc2)C(c2cccs2)C(C#N)=C(SCC(=O)NC2CCC2)N1 (stereo not shown) [RI_24] | 44.1 % of control | 80.8 % of control
CC1=C(C(=O)Nc2ccccc2)C(c2cccs2)C(C#N)=C(SCC(=O)NC2CCCCC2)N1 (stereo not shown) [RI_25] | 36.5 % of control | 55.9 % of control
CCCCCCNC(=O)CSC1=C(C#N)C(c2cccs2)C(C(=O)Nc2ccccc2)=C(C)N1 (stereo not shown) [RI_26] | 26.7 % of control | 37.6 % of control
CC1=C(C(=O)Nc2ccccc2)C(c2cccs2)C(C#N)=C(SCC(=O)NCCc2ccccc2)N1 (stereo not shown) [RI_27] | 26.5 % of control | 34.4 % of control
CC1=C(C(=O)Nc2ccccc2)C(c2cccs2)C(C#N)=C(S)N1 (stereo not shown) [RI_28] | 68.5 % of control | 77.1 % of control
CC1=C(C(=O)Nc2ccccc2)C(c2ccsc2)C(C#N)=C(S)N1 (stereo not shown) [RI_29] | 100 % of control | 79.7 % of control
CC1=C(C(N)=O)C(c2ccccc2)C(C#N)=C(SCC(=O)Nc2cccc(C)c2)N1 (stereo not shown) [RI_30] | 48.2 % of control | 94.9 % of control
CC1=C(C(=O)Nc2ccc(Cl)cc2)C(c2ccccc2C)C(C#N)=C(SCC(=O)Nc2cccc(C)c2)N1 (stereo not shown) [RI_31] | 73.3 % of control | 53.9 % of control
CC1=C(C(=O)Nc2ccccc2)C(c2cccs2)C(C#N)=C(SCC(=O)N2CCCCCCCCCCC2)N1 (stereo not shown) [RI_32] | 62.8 % of control | 62.9 % of control
CC1=C(C(=O)Nc2ccccc2)C(c2ccsc2)C(C#N)=C(SCC(=O)N2CCCCCCCCCCC2)N1 (stereo not shown) [RI_33] | 13.7 % of control | 11.9 % of control
CC1=C(C(=O)Nc2ccccc2)C(Cc2ccccc2)C(C#N)=C(SCC(=O)Nc2cccc(C)c2)N1 (stereo not shown) [RI_34] | 26.1 % of control | 31.4 % of control
CCCCCCNC(=O)CSC1=C(C#N)C(c2ccccc2)C(C(=O)Nc2ccc(Cl)cc2)=C(C)N1 (stereo not shown) [RI_35] | 78.6 % of control | 55.4 % of control
Cc1cccc(C(C)C)c1NC(=O)CSc1nc(C)c(C(=O)Nc2ccccc2)c(-c2cccs2)c1C#N [RI_36] | 72.9 % of control | 35.9 % of control
CC1=C(C(=O)Nc2ccc(Cl)cc2)C(c2ccsc2)C(C#N)=C(SCC(=O)Nc2ccc(C)c(Cl)c2)N1 (stereo not shown) [RI_37] | 75.8 % of control | 64.4 % of control
CC1=C(C(=O)Nc2ccccc2)C(c2cccs2)C(C#N)=C(SCC(=O)Nc2cccc(Cl)c2C)N1 (stereo not shown) [RI_38] | 103.4 % of control | 62.5 % of control
CC1=C(C(=O)Nc2ccccc2)C(c2ccsc2)C(C#N)=C(SCC(=O)Nc2cccc(C)c2)N1 (stereo not shown) [RI_39] | 72 % of control | 72 % of control
CC1=C(C(=O)Nc2ccc(Cl)cc2)C(c2ccccc2)C(C#N)=C(SCC(=O)Nc2ccccc2C)N1 (stereo not shown) [RI_40] | 43.2 % of control | 25.7 % of control
CC1=C(C(=O)Nc2ccc(Cl)cc2)C(c2ccccc2)C(C#N)=C(SCC(=O)Nc2ccc(C)cc2)N1 (stereo not shown) [RI_41] | 30.7 % of control | 36.4 % of control
CC1=C(C(=O)Nc2ccc(Cl)cc2)C(c2ccccc2)C(C#N)=C(SCC(=O)Nc2ccccc2)N1 (stereo not shown) [RI_42] | 36.2 % of control | 27.2 % of control
